Organism: Rattus norvegicus
Test: Evaluated for intertrial interval activity in rat; NE means no statistically significant activity
Assay type: functional, organism-based
Settings: not given

SMILES	ITI activity
CCCCc1cc(OC)c(C[C@H](N)CC)cc1OC.Cl	No effect

Organism: Rattus norvegicus
Test: Evaluated for intertrial interval activity in rat; NE means no statistically significant effect
Assay type: functional, organism-based
Settings: not given

SMILES	ITI activity
CC[C@@H](N)Cc1cc(OC)c(C(C)C)cc1OC.Cl	No effect
CC[C@@H](N)Cc1cc(OC)c(Cl)cc1OC.Cl	No effect
CC[C@@H](N)Cc1cc(OC)c(C)cc1OC.Cl [DIMOXAMINE HYDROCHLORIDE]	No effect

Organism: Rattus norvegicus
Test: Evaluated for intertrial interval activity in rat; statistically significant increase
Assay type: functional, organism-based
Settings: not given

SMILES	ITI activity
CCc1cc(OC)c(C[C@H](N)CC)cc1OC.Cl	Statistically significant increase
CC[C@@H](N)Cc1cc(OC)c(Br)cc1OC.Cl	Statistically significant increase
CCCc1cc(OC)c(C[C@H](N)CC)cc1OC.Cl	Statistically significant increase

System: Felis catus
Test: Numerical score on cat behavior was measured at a dose of 10 mg/kg, administered subcutaneously.
Assay type: functional
Settings: route subcutaneous

SMILES	Cat score
CCCOc1cc(OC)c(C[C@H](N)CC)cc1OC.Cl	1.5
CC[C@@H](N)Cc1cc(OC)c(I)cc1OC.Cl	2.5
CCOc1cc(OC)c(C[C@H](N)CC)cc1OC.Cl	1.5
CCC(N)Cc1cc(OC)c(C(C)C)cc1OC.Cl (racemic)	0.5
CC[C@@H](N)Cc1cc(OC)c(O)cc1OC.Cl	0.5
CCCCc1cc(OC)c(C[C@H](N)CC)cc1OC.Cl	0
CCC(N)Cc1cc(OC)c(Br)cc1OC.Cl (racemic)	2
CCCOc1cc(OC)c(CC(N)CC)cc1OC.Cl (racemic)	0
CC[C@H](N)Cc1cc(OC)c(SC)cc1OC.Cl	1
CC[C@@H](N)Cc1cc(OC)c(N)cc1OC.Cl	1.5
CC[C@H](N)Cc1cc(OC)c(Br)cc1OC.Cl	2
CCC(N)Cc1cc(OC)c(SC)cc1OC.Cl (racemic)	1
CC[C@@H](N)Cc1cc(OC)c(C(C)C)cc1OC.Cl	0
CCCc1cc(OC)c(CC(N)CC)cc1OC.Cl (racemic)	2.5
CC[C@@H](N)Cc1cc(OC)c(Cl)cc1OC.Cl	6.5
CCc1cc(OC)c(C[C@@H](N)CC)cc1OC.Cl	1
CCC(N)Cc1cc(OC)ccc1OC.Cl (racemic)	2
CC[C@@H](N)Cc1cc(OC)c([N+](=O)[O-])cc1OC.Cl	3.5
CC[C@@H](N)Cc1cc(OC)c(OC(C)C)cc1OC.Cl	0
CCCc1cc(OC)c(C[C@H](N)CC)cc1OC.Cl	0.5

Same assay, conditions: route subcutaneous, 10 mg/kg

SMILES	Cat score
CC[C@@H](N)Cc1cc(OC)ccc1OC.Cl	0.5
CCC(N)Cc1cc(OC)ccc1OC.Cl (single isomer, unassigned)	2

System: Felis catus
Test: Numerical score on cat behavior was measured at a dose of 10 mg/kg administered subcutaneously
Assay type: functional
Settings: route subcutaneous

SMILES	Cat score
CCc1cc(OC)c(C[C@H](N)CC)cc1OC.Cl	3.3
CC[C@H](N)Cc1cc(OC)c(C)cc1OC.Cl	0.5
CC[C@@H](N)Cc1cc(OC)c(Br)cc1OC.Cl	3.5
CCc1cc(OC)c(CC(N)CC)cc1OC.Cl (racemic)	4
CC[C@@H](N)Cc1cc(OC)c(C)cc1OC.Cl [DIMOXAMINE HYDROCHLORIDE]	1.3

System: Rattus norvegicus
Test: Minimal dose (ip) required to produce a significant increase in avoidance responding in rat
Assay type: functional
Settings: read-out: MED

SMILES	minimal effective dose [mg/kg]
CCc1cc(OC)c(C[C@H](N)CC)cc1OC.Cl	2
CC[C@@H](N)Cc1cc(OC)c(Br)cc1OC.Cl	2
CCCCc1cc(OC)c(C[C@H](N)CC)cc1OC.Cl	> 20
CC[C@@H](N)Cc1cc(OC)c(C(C)C)cc1OC.Cl	> 20
CC[C@@H](N)Cc1cc(OC)c(Cl)cc1OC.Cl	20
CC[C@@H](N)Cc1cc(OC)c(C)cc1OC.Cl [DIMOXAMINE HYDROCHLORIDE]	5
CCCc1cc(OC)c(C[C@H](N)CC)cc1OC.Cl	1

Organism: Rattus norvegicus
Test: Potency to produce a significant increase in avoidance responding in rat relative to BL-3912A
Assay type: functional
Settings: not given

SMILES	Relative potency
CCc1cc(OC)c(C[C@H](N)CC)cc1OC.Cl	2.5
CC[C@@H](N)Cc1cc(OC)c(Br)cc1OC.Cl	2.5
CCCCc1cc(OC)c(C[C@H](N)CC)cc1OC.Cl	<0.25
CC[C@@H](N)Cc1cc(OC)c(C(C)C)cc1OC.Cl	<0.25
CC[C@@H](N)Cc1cc(OC)c(Cl)cc1OC.Cl	0.25
CC[C@@H](N)Cc1cc(OC)c(C)cc1OC.Cl [DIMOXAMINE HYDROCHLORIDE]	1
CCCc1cc(OC)c(C[C@H](N)CC)cc1OC.Cl	5

Source: ChEMBL document CHEMBL1121385, “Phenylalkylamines with potential psychotherapeutic utility. 2. Nuclear substituted 2-amino-1-phenylbutanes” (1980)
